Measurements from patent US7423159B2, “Agent for preventing or treating neuropathy” (Takeda Pharmaceutical Company Limited, priority 2002, dated 2008).

Tests used:
PC12 cells = assay: neuroprotective action (neurite network formation) in PC12 cells; type: cell-based; settings: test compound 0.3-3.0 μmol/L, two days, DMEM with 0.5% FCS and 2 ng/mL NGF; observed under a microscope
Experimental: Using PC12 cells, the neuroprotective action of the compound of the present invention was evaluated.
PC12 cells were precultured for one day in a DMEM (Dulbecco's Modified Eagle's Medium) culture solution containing 10% FCS (Fetal Calf Serum) in an incubator at 37° C., 5% CO2, and seeded at 5×10^3/well in a 24 well plate (Falcon) in the same medium. After the cells adhered to the bottom surface, the culture was changed to a DMEM culture solution containing 0.5% FCS and 2 ng/mL of NGF (Wako Pure Chemical Industries, Ltd.). After culturing overnight, the test compound was added at a concentration of 0.3-3.0 μmol/L and the cells were cultured for two more days. Gultalaldehyde was added to the cultured to a final concentration of 2% and the cells were fixed for 1 hr., after which stained with a Diff-Quick (International Reagents Corporation). The cells were washed, dried with air and observed under a microscope.

rat C6 glioma cells = assay: GDNF production promoting action in rat C6 glioma cells (ELISA of culture supernatant); type: cell-based; settings: Rattus norvegicus, C6 glioma, 48 h; concentration which causes 50% increase of GDNF relative to the control group; cultured 2 days with test compound; GDNF in culture supernatant by ELISA
Experimental: Using rat C6 glioma cells, the GDNF production promoting action of the compound of the present invention was evaluated.
Rat C6 glioma cells (ATCC) were grown in Dulbecco's Modified Eagle's Medium (DMEM) containing 10% FBS (Fetal Bovine Serum) in a collagen type 1 coated 75 cm^2 culture flask (SUMITOMO BAKELITE Co., Ltd.) until near confluent, detached by trypsin treatment and washed once with DMEM containing 10% FBS.
The cells after washing were diluted with 10% FBS-containing DMEM to a concentration of 5×10^4/mL and seeded at 0.3 mL/well in each well of collagen type 1 coated 48 well culture dish (SUMITOMO BAKELITE Co., Ltd.). After 3 days, the culture in the culture dish was placed in a 1% BSA (bovine serum albumin, Sigma)-containing DMEM medium supplemented with various concentrations of test compound, and further cultured for 2 days. The culture supernatant was recovered and preserved at −80° C. until measurement of GDNF.
The content of GDNF in the culture supernatant was measured by the following ELISA Method.
Anti-GDNF antibody (MAB212, R&D) was diluted with TBS (Tris buffered physiological saline: 25 mmol/L Tris-HCl (pH 8.0), 150 mmol/L NaCl) to 2 μg/mL and dispensed at 0.1 mL/well to each well of a 96-well immunoplate. The 96-well immunoplate was incubated overnight at 4° C. and washed once with TBS containing Tween 20 at 0.05% (hereinafter to be abbreviated as TBST). A blocking solution (TBS containing 1% BSA and 5% sucrose) was added at 0.2 mL/well to each well after washing, and the plate was incubated at room temperature for 1 hr., after which each well was washed twice with TBST. The culture supernatant (0.1 mL) of the aforementioned C6 cells was added to each well after washing and the plate was incubated at room temperature for 3 hrs., after which the wells were washed 5 times with TBST. The 500-fold diluted anti-GDNF antibody (G2791, Promega) was added by 0.1 mL to each well after washing, incubated at room temperature for 2 hrs. and washed 5 times with TBST. A 5000-fold diluted horseradish peroxidase-labeled anti-chicken IgY antibody (G1351, Promega) was added at 0.1 mL/well to each well after washing, incubated at room temperature for 2 hrs. and washed 5 times with TBST. A substrate solution (TMB substrate solution, BIO-RAD) was added at 0.1 mL/well to each well after washing and allowed to develop color at room temperature for 8 min. To stop the reaction, 0.1 mL of 1 mol/L phosphoric acid was added to each well in coloring developing reaction. The absorbance of the reaction solution at 450 nm wavelength was measured.
In the same manner as above except the test compound was not used, the ELISA Method was performed and this was used as a control group.
Using various concentrations of GDNF (Promega), ELISA Method was performed in the same manner as above and standard line was prepared.
From the aforementioned absorbance and standard line, GDNF content in a sample was calculated and the concentration (EC50), which causes 50% increase of GDNF relative to the control group was calculated from the regression line.

Row | Compound | melting point [°C] | EC50 (rat C6 glioma cells) [nM] | formation of neurite network (PC12 cells)
1 | Cn1ncc(/C=C/C(=O)Nc2ccc(CC3SC(=O)NC3=O)cc2)c1-c1ccc(F)cc1 (stereo not drawn) [Example 60, (2E)-N-{4-[(2,4-Dioxo-1,3-thiazolidin-5-yl)methyl]phenyl}-3-[5-(4-fluorophenyl)-1-methyl-1H-pyrazol-4-yl]acrylamide] | 149 to 150 | 800 | promoted formation of neurite network
2 | CCOP(=O)(Cc1ccc(NC(=O)/C=C/c2cnn(C)c2-c2cccs2)cc1)OCC [Example 149, Diethyl [4-({(2E)-3-[1-methyl-5-(2-thienyl)-1H-pyrazol-4-yl]prop-2-enoyl}amino)benzyl]phosphonate] | 262 to 263 | 510 | promoted formation of neurite network
3 | Cn1ncc(/C=C/C(=O)Nc2ccc(C(O)c3ccccn3)cc2)c1-c1ccc(F)cc1 (stereo not drawn) [Example 49, (2E)-3-[5-(4-Fluorophenyl)-1-methyl-1H-pyrazol-4-yl]-N-{4-[hydroxy(2-pyridinyl)methyl]phenyl}acrylamide] | – | 1600 | promoted formation of neurite network
4 | CN1C(=O)SC(Cc2ccc(NC(=O)/C=C/c3cnn(C)c3-c3ccc(F)cc3)cc2)C1=O (stereo not drawn) [Example 110, (2E)-3-[5-(4-Fluorophenyl)-1-methyl-1H-pyrazol-4-yl]-N-{4-[(3-methyl-2,4-dioxo-1,3-thiazolidin-5-yl)methyl]phenyl}acrylamide] | 228 to 229 | 310 | promoted formation of neurite network
5 | CCOP(=O)(Cc1ccc(NC(=O)/C=C/c2cnn(C)c2-c2ccc(F)cc2)cc1)OCC [Example 2, (2E)-N-[4-(Diethylphosphonomethyl)phenyl]-3-[5-(4-fluorophenyl)-1-methyl-1H-pyrazol-4-yl]acrylamide] | – | 400 | promoted formation of neurite network
6 | Cn1ncc(/C=C/C(=O)Nc2ccc(Cn3ccnc3)cc2)c1-c1ccc(F)cc1 [Example 159, (2E)-3-[5-(4-fluorophenyl)-1-methyl-1H-pyrazol-4-yl]-N-[4-(1H-imidazol-1-ylmethyl)phenyl]acrylamide] | 213 to 214 | 120 | promoted formation of neurite network
7 | CCOP(=O)(Cc1ccc(NC(=O)/C=C/c2cnn(C)c2-c2ccc(Cl)cc2)cc1)OCC [Example 9, (2E)-3-[5-(4-Chlorophenyl)-1-methyl-1H-pyrazol-4-yl]-N-[4-(diethylphosphonomethyl)phenyl]acrylamide] | 217 to 218 | 2500 | –
8 | CCOP(=O)(Cc1ccc(NC(=O)/C=C/c2cnn(C)c2-c2ccoc2)cc1)OCC [Example 147, Diethyl 4-[{(2E)-3-[5-(3-furyl)-1-methyl-1H-pyrazol-4-yl]prop-2-enoyl)amino]benzylphosphonate] | 208 to 210 | 460 | –
9 | CCOP(=O)(Cc1ccc(NC(=O)/C=C/c2cnn(C)c2-c2ccc(OC)cc2)cc1)OCC [Example 5, (2E)-N-[4-(Diethylphosphonomethyl)phenyl]-3-[5-(4-methoxyphenyl)-1-methyl-1H-pyrazol-4-yl]acrylamide] | 199 to 200 | 1000 | –

Now from value to compound, other results behind:

Row | melting point [°C] | EC50 (rat C6 glioma cells) [nM] | Compound | formation of neurite network (PC12 cells)
10 | 257 to 258 | 36 | CCS(=O)(=O)Cc1ccc(NC(=O)/C=C/c2cnn(C)c2-c2ccc(F)cc2)cc1 [Example 223, (2E)-N-{4-[(Ethylsulfonyl)methyl]phenyl}-3-[5-(4-fluorophenyl)-1-methyl-1H-pyrazol-4-yl]acrylamide] | promoted formation of neurite network
11 | 189 to 191 | 130 | Cn1ncc(/C=C/C(=O)Nc2ccc(Cn3cccn3)cc2)c1-c1ccc(F)cc1 [Example 161, (2E)-3-[5-(4-Fluorophenyl)-1-methyl-1H-pyrazol-4-yl]-N-[4-(1H-pyrazol-1-ylmethyl)phenyl]acrylamide] | promoted formation of neurite network
12 | 225 to 226 | 190 | Cn1ncc(/C=C/C(=O)Nc2ccc(Cn3cncn3)cc2)c1-c1ccc(F)cc1 [Example 163, (2E)-3-[5-(4-Fluorophenyl)-1-methyl-1H-pyrazol-4-yl]-N-[4-(1H-1,2,4-triazol-1-ylmethyl)phenyl]acrylamide] | –
13 | 243 to 244 | 300 | Cn1ncc(/C=C/C(=O)Nc2ccc(Cn3cnc4ccccc43)cc2)c1-c1ccc(F)cc1 [Example 185, (2E)-N-[4-(1H-Benzimidazol-1-ylmethyl)phenyl]-3-[5-(4-fluorophenyl)-1-methyl-1H-pyrazol-4-yl]acrylamide] | promoted formation of neurite network
14 | 202 to 203 | 540 | Cn1ncc(/C=C/C(=O)Nc2ccc(CN3CCOCC3)cc2)c1-c1ccc(F)cc1 [Example 192, (2E)-3-[5-(4-Fluorophenyl)-1-methyl-1H-pyrazol-4-yl]-N-[4-(4-morpholinylmethyl)phenyl]acrylamide] | promoted formation of neurite network
15 | 251 to 252 | 120 | Cn1ncc(/C=C/C(=O)Nc2ccc(CS(C)(=O)=O)cc2)c1-c1ccc(F)cc1 [Example 222, (2E)-3-[5-(4-fluorophenyl)-1-methyl-1H-pyrazol-4-yl]-N-(4-[(methylsulfonyl)methyl]phenyl)acrylamide] | promoted formation of neurite network
